Experimental data published in patent US9981942B2, “Piperidine derivatives having multimodal activity against pain” (LABORATORIOS DEL DR. ESTEVE S.A., priority 2013, dated 2018).

Each molecule was assayed on σ1 receptor and the μ-opiod receptor (assay: μ and σ1 dual binding: combined class from the Ki of both radioligand assays). Details: combined class for Ki-μ and Ki-σ1; transfected HEK-293 membranes (σ1), transfected CHO-K1 cell membranes (μ).
Set-up: species or system human; key to μ and σ1 dual binding: +: Both Ki-μ and Ki-σ1>=500 nM; ++: One Ki<500 nM while the other Ki is >=500 nM; +++: Both Ki-μ and Ki-σ1<500 nM; ++++: Both Ki-μ and Ki-σ1<100 nM
In short: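 Classes combine both Ki values, split at 500 nM and 100 nM. Human μ-opioid binding used 1 nM [3H]-DAMGO on CHO-K1 membranes (27 °C, 60 min, pH 7.4, naloxone 10 μM for NSB); human σ1 used 5 nM [3H](+)-pentazocine on HEK-293 membranes (37 °C, 120 min, pH 8, haloperidol 10 μM for NSB).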
For `c1ccc(-n2cc(CN3CCC(c4ccc5cn[nH]c5c4)CC3)nn2)cc1` [Example 26, 6-(1-((1-phenyl-1H-1,2,3-triazol-4-yl)methyl)piperidin-4-yl)-1H-indazole], the “μ and σ1 dual binding” value was “++”. With `CCC(=O)Nc1cccc(C2CCN(Cc3cn(Cc4ccccn4)nn3)CC2)c1` [Example 103, N-(3-(1-((1-(pyridin-2-ylmethyl)-1H-1,2,3-triazol-4-yl)methyl)piperidin-4-yl)phenyl)propionamide] the “μ and σ1 dual binding” value was “++”. In the case of `CCC(=O)Nc1cccc(C2CCN(Cc3cn(Cc4ccccc4)nn3)CC2)n1` [Example 199, N-(6-(1-((1-benzyl-1H-1,2,3-triazol-4-yl)methyl)piperidin-4-yl)pyridin-2-yl)propionamide], the “μ and σ1 dual binding” value is reported as “++”. For `CS(=O)(=O)Nc1cccc(C2CCN(Cc3cn([C@@H]4Cc5ccccc5[C@@H]4O)nn3)CC2)c1` [Example 97, N-(3-(1-((1-((1S,2R)-1-hydroxy-2,3-dihydro-1H-inden-2-yl)-1H-1,2,3-triazol-4-yl)methyl)piperidin-4-yl)phenyl)methanesulfonamide], the “μ and σ1 dual binding” value was “++”. `CC(C)S(=O)(=O)Nc1cccc(C2CCN(Cc3cn(Cc4ccc(Cl)cn4)nn3)CC2)n1` [Example 213, N-(6-(1-((1-((5-chloropyridin-2-yl)methyl)-1H-1,2,3-triazol-4-yl)methyl)piperidin-4-yl)pyridin-2-yl)propane-2-sulfonamide] was tested, and the “μ and σ1 dual binding” value was “++”. For `CS(=O)(=O)Nc1cccc(C2CCN(Cc3cn([C@@H]4Cc5ccccc5[C@H]4O)nn3)CC2)c1` [Example 100, N-(3-(1-((1-((1R,2R)-1-hydroxy-2,3-dihydro-1H-inden-2-yl)-1H-1,2,3-triazol-4-yl)methyl)piperidin-4-yl)phenyl)methanesulfonamide], the “μ and σ1 dual binding” value was “++”. With `CS(=O)(=O)Nc1cccc(C2CCN(Cc3cnn([C@@H]4c5ccccc5C[C@H]4O)c3)CC2)c1` [Example 166, N-(3-(1-((1-((1R,2R)-2-hydroxy-2,3-dihydro-1H-inden-1-yl)-1H-pyrazol-4-yl)methyl)piperidin-4-yl)phenyl)methanesulfonamide] the “μ and σ1 dual binding” value was “++”. For `O=C1Cc2c(cccc2C2CCN(Cc3cn(-c4ccccc4)nn3)CC2)N1` [Example 32, 4-(1-((1-phenyl-1H-1,2,3-triazol-4-yl)methyl)piperidin-4-yl)indolin-2-one], the “μ and σ1 dual binding” value was “++”. For `CNS(=O)(=O)c1cccc(C2CCN(Cc3cn(-c4ccccc4)nn3)CC2)c1` [Example 17, N-methyl-3-(1-((1-phenyl-1H-1,2,3-triazol-4-yl)methyl)piperidin-4-yl)benzenesulfonamide], the “μ and σ1 dual binding” value was “++”. `CC(C)S(=O)(=O)Nc1cccc(C2CCN(Cc3cn(Cc4ccc(C(F)(F)F)nc4)nn3)CC2)c1` [Example 124, N-(3-(1-((1-((6-(trifluoromethyl)pyridin-3-yl)methyl)-1H-1,2,3-triazol-4-yl)methyl)piperidin-4-yl)phenyl)propane-2-sulfonamide] was tested, and the “μ and σ1 dual binding” value was “++”. With `CC(C)S(=O)(=O)Nc1cccc([C@@H]2CCN(Cc3cn(Cc4ccccn4)nn3)C[C@@H]2O)c1` [Example 125, N-(3-((3R,4S)-3-hydroxy-1-((1-(pyridin-2-ylmethyl)-1H-1,2,3-triazol-4-yl)methyl)piperidin-4-yl)phenyl)propane-2-sulfonamide] the “μ and σ1 dual binding” value was “++”. With `Oc1cccc(C2CCN(Cc3cn(Cc4ccccn4)cn3)CC2)c1` [Example 188, 3-(1-((1-(pyridin-2-ylmethyl)-1H-imidazol-4-yl)methyl)piperidin-4-yl)phenol] the “μ and σ1 dual binding” value was “++”. `CC1(n2cc(CN3CCC(c4cccc(O)c4)CC3)nn2)C(=O)Nc2ccccc21` (centres unmarked) [Example 95, 3-(4-((4-(3-hydroxyphenyl)piperidin-1-yl)methyl)-1H-1,2,3-triazol-1-yl)-3-methylindolin-2-one] was tested, and the “μ and σ1 dual binding” value was “++”.

Same assay, conditions: transfected HEK-293 membranes (σ1), transfected CHO-K1 cell membranes (μ)
`Oc1cccc(C2CCN(Cc3cn(-c4cc(C(F)(F)F)ccn4)nn3)CC2)c1` [Example 157, 3-(1-((1-(4-(trifluoromethyl)pyridin-2-yl)-1H-1,2,3-triazol-4-yl)methyl)piperidin-4-yl)phenol] was tested, and the Ki range for both μ and σ1 (dual-binding class) was < 0.5 µM. For `CCC(=O)Nc1cncc(C2CCN(Cc3cn(-c4ccccc4)nn3)CC2)c1` [Example 195, N-(5-(1-((1-phenyl-1H-1,2,3-triazol-4-yl)methyl)piperidin-4-yl)pyridin-3-yl)propionamide], the Ki range for both μ and σ1 (dual-binding class) was ≥ 0.5 µM. With `NC(=O)c1cccc(C2CCN(Cc3cn(-c4ccccc4)nn3)CC2)c1` [Example 6, 3-(1-((1-phenyl-1H-1,2,3-triazol-4-yl)methyl)piperidin-4-yl)benzamide] the Ki range for both μ and σ1 (dual-binding class) was < 0.5 µM. In the case of `Oc1cccc(C2CCN(Cc3cn(Cc4ncccc4C(F)(F)F)nn3)CC2)c1` [Example 151, 3-(1-((1-((3-(trifluoromethyl)pyridin-2-yl)methyl)-1H-1,2,3-triazol-4-yl)methyl)piperidin-4-yl)phenol], the Ki range for both μ and σ1 (dual-binding class) is reported as < 0.5 µM. `Oc1ccc(C2CCN(Cc3cn(-c4ccccc4)nn3)CC2)cc1` [Example 221, 4-(1-((1-phenyl-1H-1,2,3-triazol-4-yl)methyl)piperidin-4-yl)phenol] was tested, and the Ki range for both μ and σ1 (dual-binding class) was < 0.5 µM. `Oc1cccc(C2CCN(Cc3cn(Cc4ccncc4)nn3)CC2)c1` [Example 54, 3-(1-((1-(pyridin-4-ylmethyl)-1H-1,2,3-triazol-4-yl)methyl)piperidin-4-yl)phenol] was tested, and the Ki range for both μ and σ1 (dual-binding class) was < 0.5 µM. `Oc1cccc(C2CCN(Cc3cn([C@@H]4Cc5ccccc5[C@H]4F)nn3)CC2)c1` [Example 72, 3-(1-((1-((1R,2R)-1-fluoro-2,3-dihydro-1H-inden-2-yl)-1H-1,2,3-triazol-4-yl)methyl)piperidin-4-yl)phenol] was tested, and the Ki range for both μ and σ1 (dual-binding class) was < 0.1 µM. `CCC(=O)Nc1cccc(C2CCN(Cc3cc(-c4ccccc4)no3)CC2)n1` [Example 201, N-(6-(1-((3-phenylisoxazol-5-yl)methyl)piperidin-4-yl)pyridin-2-yl)propionamide] was tested, and the Ki range for both μ and σ1 (dual-binding class) was < 0.5 µM. `CS(=O)(=O)Nc1cccc([C@@H]2CCN(Cc3cnn(-c4ccccc4)c3)C[C@@H]2O)c1` [Example 165, N-(3-((3R,4S)-3-hydroxy-1-((1-phenyl-1H-pyrazol-4-yl)methyl)piperidin-4-yl)phenyl)methanesulfonamide] was tested, and the Ki range for both μ and σ1 (dual-binding class) was < 0.5 µM. `Oc1cccc(C2CCN(Cc3cn(-c4ccc(F)cn4)nn3)CC2)c1` [Example 143, 3-(1-((1-(5-fluoropyridin-2-yl)-1H-1,2,3-triazol-4-yl)methyl)piperidin-4-yl)phenol] was tested, and the Ki range for both μ and σ1 (dual-binding class) was < 0.1 µM. For `Oc1cccc(C2CCN(Cc3cn(Cc4ccc(F)cn4)cn3)CC2)c1` [Example 215, 3-(1-((1-((5-fluoropyridin-2-yl)methyl)-1H-imidazol-4-yl)methyl)piperidin-4-yl)phenol], the Ki range for both μ and σ1 (dual-binding class) was < 0.5 µM. With `Oc1cccc(C2CCN(Cc3cn(-c4ccc(Cl)cc4Cl)nn3)CC2)c1` [Example 41, 3-(1-((1-(2,4-dichlorophenyl)-1H-1,2,3-triazol-4-yl)methyl)piperidin-4-yl)phenol] the Ki range for both μ and σ1 (dual-binding class) was < 0.1 µM. For `CC(c1ccccn1)n1cc(CN2CCC(c3cccc(O)c3)CC2)nn1` (centres unmarked) [Example 75, 3-(1-((1-(1-(pyridin-2-yl)ethyl)-1H-1,2,3-triazol-4-yl)methyl)piperidin-4-yl)phenol], the Ki range for both μ and σ1 (dual-binding class) was < 0.5 µM. With `Oc1cccc(C2CCN(Cc3cn(C4CCC(F)(F)CC4)nn3)CC2)c1` [Example 64, 3-(1-((1-(4,4-difluorocyclohexyl)-1H-1,2,3-triazol-4-yl)methyl)piperidin-4-yl)phenol] the Ki range for both μ and σ1 (dual-binding class) was < 0.1 µM. For `CS(=O)(=O)Nc1cncc(C2CCN(Cc3cn(-c4ccccc4)nn3)CC2)c1` [Example 194, N-(5-(1-((1-phenyl-1H-1,2,3-triazol-4-yl)methyl)piperidin-4-yl)pyridin-3-yl)methanesulfonamide], the Ki range for both μ and σ1 (dual-binding class) was ≥ 0.5 µM. `Oc1cccc(C2CCN(Cc3cn([C@H]4CC[C@H](C(F)(F)F)CC4)nn3)CC2)c1` [Example 83, 3-(1-((1-((1r,4r)-4-(trifluoromethyl)cyclohexyl)-1H-1,2,3-triazol-4-yl)methyl)piperidin-4-yl)phenol] was tested, and the Ki range for both μ and σ1 (dual-binding class) was < 0.1 µM. With `CCC(=O)Nc1cccc(C2CCN(Cc3cnn(-c4ccccc4)c3)CC2)n1` [Example 202, N-(6-(1-((1-phenyl-1H-pyrazol-4-yl)methyl)piperidin-4-yl)pyridin-2-yl)propionamide] the Ki range for both μ and σ1 (dual-binding class) was < 0.1 µM. With `Oc1cccc(C2CCN(Cc3cn(-c4ccccc4)nn3)CC2)n1` [Example 198, 6-(1-((1-phenyl-1H-1,2,3-triazol-4-yl)methyl)piperidin-4-yl)pyridin-2-ol] the Ki range for both μ and σ1 (dual-binding class) was ≥ 0.5 µM. In the case of `CS(=O)(=O)Nc1cccc(C2CCN(Cc3cc(-c4ccccc4)no3)CC2)c1` [Example 174, N-(3-(1-((3-phenylisoxazol-5-yl)methyl)piperidin-4-yl)phenyl)methanesulfonamide], the Ki range for both μ and σ1 (dual-binding class) is reported as < 0.1 µM. In the case of `Oc1cccc(C2CCN(Cc3cn(Cc4ccc(Cl)cn4)nn3)CC2)c1` [Example 153, 3-(1-((1-((5-chloropyridin-2-yl)methyl)-1H-1,2,3-triazol-4-yl)methyl)piperidin-4-yl)phenol], the Ki range for both μ and σ1 (dual-binding class) is reported as < 0.1 µM. In the case of `CC(C)S(=O)(=O)Nc1cccc(C2CCN(Cc3cn(Cc4ncccc4F)nn3)CC2)c1` [Example 114, N-(3-(1-((1-((3-fluoropyridin-2-yl)methyl)-1H-1,2,3-triazol-4-yl)methyl)piperidin-4-yl)phenyl)propane-2-sulfonamide], the Ki range for both μ and σ1 (dual-binding class) is reported as < 0.5 µM. With `Oc1cccc(C2CCN(Cc3cn(-c4coc5ccccc45)nn3)CC2)c1` [Example 89, 3-(1-((1-(benzofuran-3-yl)-1H-1,2,3-triazol-4-yl)methyl)piperidin-4-yl)phenol] the Ki range for both μ and σ1 (dual-binding class) was < 0.1 µM.
